According to US6727232B2, “Nucleoside peptide antibiotics of AA-896” (Wyeth Holdings Corporation, priority 2001, dated 2004):
Read-outs that look alike come from different tables or passages of the source.

Tests used:
Experiment in all cases: Broth dilution MIC
Type in all cases: cell-based
CNS GC 4537 = settings: read-out: Antimicrobial Activity (MIC)
How it was run: (§1)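 Serial dilutions in Mueller-Hinton broth inoculated with bacterial suspension. MIC is the lowest concentration inhibiting growth after 18 hours at 35° C.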

CNS GC 4538 = settings: read-out: Antimicrobial Activity (MIC)
How it was run: as §1

CNS GC 4547 = settings: read-out: Antimicrobial Activity (MIC)
How it was run: as §1

E. cloacae GC 3783 = settings: Enterobacter cloacae, read-out: Antimicrobial Activity (MIC)
How it was run: as §1

E. coli GC 2203 = settings: Escherichia coli, read-out: Antimicrobial Activity (MIC)
How it was run: as §1

E. coli GC 3226 = settings: Escherichia coli, read-out: Antimicrobial Activity (MIC)
How it was run: as §1

E. coli GC 4559 = settings: Escherichia coli, read-out: Antimicrobial Activity (MIC)
How it was run: as §1

E. coli GC 4560 = settings: Escherichia coli, read-out: Antimicrobial Activity (MIC)
How it was run: as §1

E. faecalis GC 2242 = settings: Enterococcus faecalis, read-out: Antimicrobial Activity (MIC)
How it was run: as §1

E. faecalis GC 4555 = settings: Enterococcus faecalis, read-out: Antimicrobial Activity (MIC)
How it was run: as §1

E. faecalis GC 842 = settings: Enterococcus faecalis, read-out: Antimicrobial Activity (MIC)
How it was run: as §1

K. pneumoniae GC 4534 = settings: Klebsiella pneumoniae, read-out: Antimicrobial Activity (MIC)
How it was run: as §1

M. morganii GC 4531 = settings: Morganella morganii, read-out: Antimicrobial Activity (MIC)
How it was run: as §1

P. aeruginosa GC 2214 = settings: Pseudomonas aeruginosa, read-out: Antimicrobial Activity (MIC)
How it was run: as §1

P. aeruginosa GC 4532 = settings: Pseudomonas aeruginosa, read-out: Antimicrobial Activity (MIC)
How it was run: as §1

P. rettgeri GC 4530 = settings: Providencia rettgeri, read-out: Antimicrobial Activity (MIC)
How it was run: as §1

S. aureus GC 1131 = settings: Staphylococcus aureus, read-out: Antimicrobial Activity (MIC)
How it was run: as §1

S. aureus GC 2216 = settings: Staphylococcus aureus, read-out: Antimicrobial Activity (MIC)
How it was run: as §1

S. aureus GC 4536 = settings: Staphylococcus aureus, read-out: Antimicrobial Activity (MIC)
How it was run: as §1

S. marcescens GC 4077 = settings: Serratia marcescens, read-out: Antimicrobial Activity (MIC)
How it was run: as §1

[1] = CNS GC 4537, Mueller-Hinton broth, 18 hours at 35° C.
[2] = CNS GC 4538, Mueller-Hinton broth, 18 hours at 35° C.
[3] = CNS GC 4547, Mueller-Hinton broth, 18 hours at 35° C.
[4] = GC3783, E. cloacae GC 3783, Mueller-Hinton broth, 18 hours at 35° C.
[5] = GC2203, E. coli GC 2203, Mueller-Hinton broth, 18 hours at 35° C.
[6] = GC3226, E. coli GC 3226, Mueller-Hinton broth, 18 hours at 35° C.
[7] = GC4559, E. coli GC 4559, Mueller-Hinton broth, 18 hours at 35° C.
[8] = GC4560, E. coli GC 4560, Mueller-Hinton broth, 18 hours at 35° C.
[9] = GC2242, E. faecalis GC 2242, Mueller-Hinton broth, 18 hours at 35° C.
[10] = GC4555, E. faecalis GC 4555, Mueller-Hinton broth, 18 hours at 35° C.
[11] = GC842, E. faecalis GC 842, Mueller-Hinton broth, 18 hours at 35° C.
[12] = GC4534, K. pneumoniae GC 4534, Mueller-Hinton broth, 18 hours at 35° C.
[13] = GC4531, M. morganii GC 4531, Mueller-Hinton broth, 18 hours at 35° C.
[14] = GC2214, P. aeruginosa GC 2214, Mueller-Hinton broth, 18 hours at 35° C.
[15] = GC4532, P. aeruginosa GC 4532, Mueller-Hinton broth, 18 hours at 35° C.
[16] = GC4530, P. rettgeri GC 4530, Mueller-Hinton broth, 18 hours at 35° C.
[17] = GC1131, S. aureus GC 1131, Mueller-Hinton broth, 18 hours at 35° C.
[18] = GC2216, S. aureus GC 2216, Mueller-Hinton broth, 18 hours at 35° C.
[19] = GC4536, S. aureus GC 4536, Mueller-Hinton broth, 18 hours at 35° C.
[20] = GC4077, S. marcescens GC 4077, Mueller-Hinton broth, 18 hours at 35° C.

Measured: MIC

CCCCCCCCNC(=O)NC[C@H]1OC(O[C@H](C2C(=O)N(CCCCCCCC)C(=O)N2CCCNC(=O)C(NC(=O)C(NC(=O)NC(C(=O)O)C(C)C)C2CCNC(=N)N2)C(O)C(C)C)[C@H]2O[C@@H](n3ccc(=O)[nH]c3=O)[C@H](O)[C@@H]2O)[C@H](OC)[C@H]1O (stereo partly drawn) [Example 11, 14-[5-((R)-{(2S,3S,4R,5R)-5-[2,4-Dioxo-3,4-dihydro-1 (2H)-pyrimidinyl]-3,4-dihydroxytetrahydro-2-furanyl}{[(3R,4S,5R)-4-hydroxy-3-methoxy-5-({[(octylamino)carbonyl]amino}methyl)tetrahydro-2-furanyl]oxy}methyl)-3-octyl-2,4-dioxo-1-imidazolidinyl]-9-(1-hydroxy-2-methylpropyl)-6-(2-iminohexahydro-4-pyrimidinyl)-2-isopropyl-4,7,10-trioxo-3,5,8,11-tetraazatetradecan-1-oic Acid]
> 32 µg/mL: CNS GC 4537; [1] | CNS GC 4538; [2] | CNS GC 4547; [3] | E. cloacae GC 3783; [4] | E. coli GC 2203; [5] | E. coli GC 3226; [6] | E. coli GC 4559; [7] | E. coli GC 4560; [8] | E. faecalis GC 2242; [9] | E. faecalis GC 4555; [10] | E. faecalis GC 842; [11] | K. pneumoniae GC 4534; [12] | M. morganii GC 4531; [13] | P. aeruginosa GC 2214; [14] | P. aeruginosa GC 4532; [15] | P. rettgeri GC 4530; [16] | S. aureus GC 1131; [17] | S. aureus GC 2216; [18] | S. aureus GC 4536; [19] | S. marcescens GC 4077; [20]

COC1C(O[C@H](C2C(=O)N(c3ccc(F)cc3)C(=O)N2CCCNC(=O)C(NC(=O)C(NC(=O)NC(C(=O)O)C(C)C)C2CCNC(=N)N2)C(O)C(C)C)[C@H]2O[C@@H](n3ccc(=O)[nH]c3=O)C(O)C2O)O[C@H](CNC(=O)Nc2ccc(F)cc2)C1O (stereo partly drawn) [Example 12, 14-[5-((R)-{(2S,5R)-5-[2,4-Dioxo-3,4-dihydro-1 (2H)-pyrimidinyl]-3,4-dihydroxytetrahydro-2-furanyl}{[(5R)-4-hydroxy-3-methoxy-5-({[(4-fluoroanilino)carbonyl]amino}methyl)tetrahydro-2-furanyl]oxy}methyl)-3-(4-fluorophenyl)-2,4-dioxo-1-imidazolidinyl]-9-(1-hydroxy-2-methylpropyl)-6-(2-iminohexahydro-4-pyrimidinyl)-2-isopropyl-4,7,10-trioxo-3,5,8,11-tetraazatetradecan-1-oic Acid]
> 32 µg/mL: CNS GC 4537; [1] | CNS GC 4538; [2] | CNS GC 4547; [3] | E. cloacae GC 3783; [4] | E. coli GC 2203; [5] | E. coli GC 3226; [6] | E. coli GC 4559; [7] | E. coli GC 4560; [8] | E. faecalis GC 2242; [9] | E. faecalis GC 4555; [10] | E. faecalis GC 842; [11] | K. pneumoniae GC 4534; [12] | M. morganii GC 4531; [13] | P. aeruginosa GC 2214; [14] | P. aeruginosa GC 4532; [15] | P. rettgeri GC 4530; [16] | S. aureus GC 1131; [17] | S. aureus GC 2216; [18] | S. aureus GC 4536; [19] | S. marcescens GC 4077; [20]

COc1ccc(NC(=O)NC[C@H]2OC(O[C@H](C3C(=O)N(c4ccc(OC)cc4)C(=O)N3CCCNC(=O)C(NC(=O)C(NC(=O)NC(C(=O)O)C(C)C)C3CCNC(=N)N3)C(O)C(C)C)[C@H]3O[C@@H](n4ccc(=O)[nH]c4=O)C(O)C3O)C(OC)C2O)cc1 (stereo partly drawn) [Example 13, 14-[5-((R)-{(2S,5R)-5-[2,4-Dioxo-3,4-dihydro-1 (2H)-pyrimidinyl]-3,4-dihydroxytetrahydro-2-furanyl}{[(5R)-4-hydroxy-3-methoxy-5-({[(4-methoxyanilino)carbonyl]amino}methyl)tetrahydro-2-furanyl]oxy}methyl)-3-(4-methoxyphenyl)-2,4-dioxo-1-imidazolidinyl]-9-(1-hydroxy-2-methylpropyl)-6-(2-iminohexahydro-4-pyrimidinyl)-2-isopropyl-4,7,10-trioxo-3,5,8,11-tetraazatetradecan-1-oic Acid]
> 32 µg/mL: CNS GC 4537; 18 h | CNS GC 4538; 18 h | CNS GC 4547; 18 h | E. cloacae GC 3783; GC3783, 18 h | E. coli GC 2203; GC2203, 18 h | E. coli GC 3226; GC3226, 18 h | E. coli GC 4559; GC4559, 18 h | E. coli GC 4560; GC4560, 18 h | E. faecalis GC 2242; GC2242, 18 h | E. faecalis GC 4555; GC4555, 18 h | E. faecalis GC 842; GC842, 18 h | K. pneumoniae GC 4534; GC4534, 18 h | M. morganii GC 4531; GC4531, 18 h | P. aeruginosa GC 2214; GC2214, 18 h | P. aeruginosa GC 4532; GC4532, 18 h | P. rettgeri GC 4530; GC4530, 18 h | S. aureus GC 1131; GC1131, 18 h | S. aureus GC 2216; GC2216, 18 h | S. aureus GC 4536; GC4536, 18 h | S. marcescens GC 4077; GC4077, 18 h
